Data published in article PMC11300601, “Zurletrectinib is a next-generation TRK inhibitor with strong intracranial activity against NTRK fusion-positive tumours with on-target resistance to first-generation agents” (British Journal of Cancer, 2024).

Assays:
KM12 xenografts = assay: KM12 subcutaneous xenograft efficacy study; assay type: in vivo, BALB/c nude female mice; conditions: 30 mg/kg BID versus 1 mg/kg BID zurletrectinib, oral
Procedure: KM12 and Ba/F3 LMNA-NTRK1, TRKA G595R xenografts were generated by subcutaneous injection of five and six million cells into the right flank of 6–8 weeks old BALB/c nude female mice, respectively. Treatment with zurletrectinib, selitrectinib and larotrectinib started at tumor reaching around 150 mm^3. Xenografts were randomized into different groups (8 mice per group) based on tumor size and dosed orally with zurletrectinib (0.1, 0.3, 1 mg/kg BID for KM12 models and 0.3, 1, 3 mg/kg BID for Ba/F3 models), selitrectinib (30 mg kg^−1 BID per day) and larotrectinib (30 mg kg^−1 BID) for constant 10 days or 23 days for KM12 or Ba/F3 models, respectively. Eight mice per group were included in each experiment. Randomization was conducted without utilizing a blind method. Tumors were measured twice weekly using calipers and body weight was also assessed twice weekly. At the end of each treatment, animals were euthanized. The vehicles were formulated as follows: were first dissolved in Cremophor EL/ethanol (50:50) as a 4× stock solution, vortexed, sonicated and then diluted to a 1× solution with saline before use.

[1] = test system: Bcan-Ntrk1 Trka G598R orthotopic gliomas; assay: Intracranial efficacy, orthotopic mouse glioma model; assay type: in vivo, Athymic female mice; conditions: selitrectinib 30 mg/kg BID, repotrectinib and zurletrectinib 15 mg/kg BID
Procedure: (§1) In vivo brain orthotopic experiments were carried out at Memorial Sloan Kettering Cancer Center (MSKCC). Two mouse Bcan-Ntrk1 glioma models were used: single solvent front mutant Trka G598R (clone 1) and double xDFG mutant Trka G598R/G670A (clone 3). For each model, five arms were used with six mice per arm, totaling 60 mice. Athymic female mice (6–8 weeks old) were anesthetized with ketamine/xylazine and administered a preoperative dose of buprenorphine prior to stereotactic intracranial injection. Each mouse was injected with 200,000 cells in a volume of 2 uL 3 mm deep, 1 mm to the right of the sagittal suture (midline), and 1 mm posterior to the coronal suture behind the bregma with the aim being to target the right lateral ventricle. One week post cell implantation, the mice were randomized into different treatment groups and treatments began. […] Mouse weights were monitored twice a week and survival was recorded and graphed on GraphPad Prism 9 [31, 32].
(§2) Statistical analyses were conducted using GraphPad Prism 9 (GraphPad Software Inc.). For CellTiter-Glo assays, raw data obtained were normalized to the DMSO control utilizing Microsoft Excel. GraphPad Prism 9 was used to determine the 50% growth inhibition concentration (IC50) using non-linear regression and curve fitting. Data is presented as the mean ± standard deviation (STDEV) of all replicates. Measurements were assessed for normal distribution and homogeneity of variance using appropriate tests and were analyzed using analysis of variance or T-Tests, and nonparametric tests were used for non-normal distributed data. Animal studies utilized five arms with six or eight mice per arm. A Kaplan–Meier test was used to assess lifespan characteristics and for comparison between groups. Median survivals were obtained using GraphPad Prism 9. Sample size was based on statistical power analysis to ensure sufficient capability to detect a pre-specified effect size. We assumed a moderate effect size, with an alpha level set at 0.05, and a power (1-β) set at 0.80. P values were calculated using a Log-rank or Mantel–Cox test using GraphPad Prism 9. A P value < 0.05 was considered statistically significant.

[2] = test system: Bcan-Ntrk1 Trka G598R/G670A orthotopic gliomas; assay: as above; assay type: in vivo, Athymic female mice; conditions: selitrectinib 30 mg/kg BID, repotrectinib and zurletrectinib 15 mg/kg BID
Procedure: as §1, §2

[3] = Brain distribution in rats (plasma, brain, CSF by LC-MS/MS); assay type: in vivo, Male Sprague Dawley (SD) rats; conditions: rat; for concentration at 0.5 h / concentration at 2 h / Kp at 0.5 h / Kp at 2 h: male, Sprague-Dawley, in vivo, po, 10 mg/kg; for Brain concentration (ng/g ± SD) / Brain/plasma ratio (%) / CSF concentration (ng/mL ± SD) / CSF/plasma ratio (%) / Plasma concentration (ng/mL ± SD): 10 mg/kg PO single dose
Procedure: All […] (PK) studies in rats were conducted according to protocols approved by the Animal Care and Use Committee at InnoCare pharmacology company in China. […] For the collection of plasma, brain tissue and cerebrospinal fluid (CSF), animals were euthanized with CO2 at 0.5 and 2 h post dosing and blood samples were in EDTA-treated microtubes. Brain tissues were homogenized and immediately flash frozen (−80 °C). Blood samples and CSF were spun at 2000 × g for 15 min at 4 °C, and plasma was removed and stored at −80 °C until liquid chromatography-tandem mass spectrometry (LC-MS/MS) analysis. The agents in rat plasma, brain homogenate or CSF samples were extracted and quantified by LC-MS/MS.

[4] = Brain concentration (ng/g ± SD)
[5] = Plasma concentration (ng/mL ± SD)

Question: Which “Fold higher dose necessary to achieve the same effect on tumor growth inhibition observed with zurletrectinib” value (KM12 xenografts) does the source give for O=C(Nc1cnn2ccc(N3CCC[C@@H]3c3cc(F)ccc3F)nc12)N1CC[C@H](O)C1 [Larotrectinib, larotrectinib] here?
Answer: 30 fold

Question: Which “Survival of mice, comparison between next-generation agents” value [1] does the source give for C[C@@H]1CCc2ncc(F)cc2[C@H]2CCCN2c2ccn3ncc(c3n2)C(=O)N1 [Selitrectinib, selitrectinib] here?
Answer: no significant difference in the survival

Question: What about the Median survival [2] of the same compound?
Answer: 41.5 days

Question: What about the “Fold higher dose necessary to achieve the same effect on tumor growth inhibition observed with zurletrectinib” value (KM12 xenografts) of the same compound?
Answer: 30 fold

Question: What about the concentration at 0.5 h [3, 4] of the same compound?
Answer: 93.9 ± 23.2 ng/g

Question: And the concentration at 2 h [3, 4]?
Answer: 85.4 ± 35.4 ng/g

Question: What about the Kp at 0.5 h ([3]; Brain/plasma ratio (%)) of the same compound?
Answer: 0.0403

Question: And the Kp at 2 h ([3]; Brain/plasma ratio (%))?
Answer: 0.0617

Question: And the concentration at 0.5 h ([3]; CSF concentration (ng/mL ± SD))?
Answer: 11 ± 2.12 ng/mL

Question: What about the concentration at 2 h ([3]; CSF concentration (ng/mL ± SD)) of the same compound?
Answer: 9.64 ± 6.02 ng/mL

Question: And the Kp at 0.5 h ([3]; CSF/plasma ratio (%))?
Answer: 0.00476

Question: And the Kp at 2 h ([3]; CSF/plasma ratio (%))?
Answer: 0.00648

Question: What about the concentration at 0.5 h [3, 5] of the same compound?
Answer: 2320 ± 479 ng/mL

Question: What about the concentration at 2 h [3, 5] of the same compound?
Answer: 1470 ± 854 ng/mL

Question: With zurletrectinib as the compound, how does the “Survival of mice, comparison between next-generation agents” value [1] read?
Answer: no significant difference in the survival

Question: What about the Median survival [2] of the same compound?
Answer: 104 days

Question: And the “Brain concentration (ng/g ± SD)” value ([3]; 0.5 h)?
Answer: 44.5 ± 11.5 ng/g

Question: And the “Brain/plasma ratio (%)” value ([3]; 0.5 h)?
Answer: 7.17%

Question: And the “CSF concentration (ng/mL ± SD)” value ([3]; 0.5 h)?
Answer: 17.5 ± 6.00 ng/mL

Question: And the “CSF/plasma ratio (%)” value ([3]; 0.5 h)?
Answer: 2.81%

Question: What about the “Plasma concentration (ng/mL ± SD)” value ([3]; 0.5 h) of the same compound?
Answer: 616 ± 76.1 ng/mL

Question: And the “Brain concentration (ng/g ± SD)” value ([3]; 2 h)?
Answer: 96.9 ± 34.9 ng/g

Question: And the “Brain/plasma ratio (%)” value ([3]; 2 h)?
Answer: 15.5%

Question: What about the “CSF concentration (ng/mL ± SD)” value ([3]; 2 h) of the same compound?
Answer: 18.9 ± 5.91 ng/mL

Question: What about the “CSF/plasma ratio (%)” value ([3]; 2 h) of the same compound?
Answer: 3.04%

Question: And the “Plasma concentration (ng/mL ± SD)” value ([3]; 2 h)?
Answer: 610 ± 105 ng/mL
